{
  "source": "patent US11584712B2",
  "about": "“Alkylamine-substituted perthiocarbamates as dual precursors to hydropersulfide and carbonyl sulfide” (The Johns Hopkins University, priority 2020, dated 2023)",
  "type_in_all_cases": "physicochemical",
  "key": {"[1]": {"assay": "RSSH generation in the presence of N-acetyl cysteine by UPLC-MS", "conditions": "NAC 500 μM, 37° C.; for Byproduct % (yield of cyclic urea 2a-d): precursor 100 μM, pH 7.4 ammonium bicarbonate buffer with DTPA", "protocol": "[…] The resulting mixture was incubated at 37° C. An aliquot (200 μL) of reaction mixture was withdrawn at specified time points and quenched with 1% formic acid (200 μL). 3-Amino-benzoic acid (50 μM) was added to each sample as internal standard prior to UPLC-MS analysis. To quantify 2a-d generated from these precursors, a calibration curve for each individual cyclic urea with known concentrations was independently generated.\n[…] The resulting mixture was incubated at 37° C. An aliquot ([…]) of reaction mixture was withdrawn at specified time points and quenched with 1% formic acid (200 μL). 3-amino-benzoic acid (50 μM) was added to each sample as internal standard prior to UPLC-MS analysis. To quantify 2a-d generated from these precursors, the calibration curve of each individual cyclic urea with known concentrations was independently generated."}, "[2]": {"assay": "COS release using membrane inlet mass spectrometry (MIMS)", "conditions": "for COS release (m/z=60 signal): precursor 50 μM, pH 7.4 phosphate buffer saline with DTPA, 37° C.", "protocol": "(§1) COS was analyzed using a Hiden HPR-40 MIMS system with a sample cell and membrane probe that have been optimized to detect gases dissolved in aqueous solution as described previously. Cline et al., 2011. A stock solution of N-acetyl-cysteine (25 mM) was prepared in DI water. RSSH precursor stock solutions (5 mM) were prepared in DMSO. These solutions were degassed by purging with nitrogen for 10 min before COS release analysis. Typically, 20 mL phosphate buffer solution (10 mM) was added to the sample cell, degassed and purged with a continuous flow of argon for 15 min. N-acetyl cysteine (200 μL, 25 mM) and RSSH precursor (200 μL, 5 mM) were then injected using a gas tight syringe and ion current at m/z 60 (COS^+) were collected for 2 h (source pressure was approximately 1×10^−7 to 5×10^−7 Torr).\nas §1, with “(COS*)” for “(COS^+)”"}, "[3]": {"assay": "Kinetics of RSSH release from precursors monitored by HPLC (HPE-IAM trapping)", "conditions": "for Hydropersulfide Yield (%): precursor 100 μM, HPE-IAM 5 mM, pH 7.4 phosphate buffer with DTPA", "protocol": "(§2) Precursors 7a-d were dissolved in DMSO to afford 10 mM stock solutions. HPE-IAM was dissolved in DMSO to obtain a 100 mM stock solution. […] This solution was pre-incubated for 10 min at 37° C. and then precursor 7a-d (30 μL, 10 mM) were independently added into the mixture. The resulting solution was incubated at 37° C. At different time points, an aliquot of 200 μL was taken and quenched with 200 μL […] solution. These samples were stored at 0° C. until HPLC analysis was performed. The sample (20 μL) was injected into a high-performance liquid chromatography (HPLC) equipped with Phenomenex C-18 reverse phase column (250 mm×4.6 mm, 5 μm). HPLC Method: mobile phase A (H2O) and mobile phase B (ACN), flow rate: 1 mL/min, run time: 20 min, the gradient elution method: 10% to 40% B from 0 to 12 min, 40% to 80% B from 12 to 20 min. The elution was monitored by a UV detector at 275 nm. A calibration curve was generated using RSS-HPE-AM 9 to quantify RSSH generation from 7a-d.\nas §2, with “by a variable UV detector” for “by a UV detector”"}},
  "note": "Values joined by “and” are separate entries in the source; they are usually repeats but may differ in a detail not shown here. Identical values can stand only once. “Also recorded” adds a separate entry of the source.",
  "data": [
    {"compound": "3-(((3-acetamido-4-methoxy-2-methyl-4-oxobutan-2-yl)disulfannecarbonyl)(methyl)amino)-N-methylpropan-1-aminium [Precursor 7c]", "values": [
      {"measurement": "Byproduct % (yield of cyclic urea 2a-d)", "setting": "[1]", "value": "19.2 ± 0.5", "unit": "%"},
      {"measurement": "COS release (m/z=60 signal)", "setting": "[2]; NAC 0.25 mM (5 equiv.)", "value": "produce mainly COS"},
      {"measurement": "Hydropersulfide Yield (%)", "setting": "[3]; 37° C.", "value": "90% and 90 ± 1%"}
    ]},
    {"compound": "CNCCN(C)C(=O)SSC(C)(C)C(NC(C)=O)C(=O)OC", "note": "(stereo not drawn) [Precursor 7a, 2-(((3-acetamido-4-methoxy-2-methyl-4-oxobutan-2-yl)disulfannecarbonyl)(methyl)amino)-N-methylethan-1-aminium]", "values": [
      {"measurement": "Byproduct % (yield of cyclic urea 2a-d)", "setting": "[1]", "value": "87% and 87 ± 1%"},
      {"measurement": "COS release (m/z=60 signal)", "setting": "[2]; NAC 0.25 mM (5 equiv.)", "value": "small additional increase"},
      {"measurement": "COS release (m/z=60 signal)", "setting": "[2]; without NAC", "value": "very small increase"},
      {"measurement": "rate constant k of RSSH release", "setting": "[3]; pH 6.0", "value": 0.031, "unit": "min⁻¹"},
      {"measurement": "first-order rate constant k of RSSH release (RSS-HPE-AM 9 generation)", "setting": "[3]; pH 7.4 phosphate buffer, HPE-IAM, 37° C., HPLC", "value": "0.505 min⁻¹ and 0.505 ± 0.019 min⁻¹"},
      {"measurement": "rate constant k of RSSH release", "setting": "[3]; pH 8.0", "value": 2.58, "unit": "min⁻¹"},
      {"measurement": "Hydropersulfide Yield (%)", "setting": "[3]; 37° C.", "value": "89% and 89 ± 3%"}
    ]},
    {"compound": "COC(=O)C(NC(C)=O)C(C)(C)SSC(=O)N(C)CCN", "note": "(stereo not drawn) [Precursor 7b, 2-(((3-acetamido-4-methoxy-2-methyl-4-oxobutan-2-yl)disulfannecarbonyl)(methyl)amino)ethan-1-aminium]", "values": [
      {"measurement": "RSSH release under acidic conditions", "setting": "[1]; 7b 100 μM, pH 6.0 ammonium acetate buffer 50 mM, 12 h", "value": "still observed, albeit at a slower rate; also recorded: slow RSSH release under acidic conditions"},
      {"measurement": "Byproduct % (yield of cyclic urea 2a-d)", "setting": "[1]", "value": "58% and 58 ± 0.7%"},
      {"measurement": "COS release in the presence of GSH compared with NAC", "setting": "[2]; pH 7.4, GSH", "value": "slightly higher/faster COS release"},
      {"measurement": "COS release (m/z=60 signal)", "setting": "[2]; NAC 0.25 mM (5 equiv.)", "value": "increased production of COS"},
      {"measurement": "Hydropersulfide Yield (%)", "setting": "[3]; 37° C.", "value": "94 ± 1", "unit": "%"}
    ]}
  ]
}
